Measured values as given in patent publication US7232813B2, “Neutral endopeptidase (NEP) and human soluble endopeptidase (hSEP) inhibitors for prophylaxis and treatment of neuro-degenerative disorders” (Solvay Pharmaceuticals B.V., priority 2004, dated 2007).

Columns and labels:
[1] = system: traumatic brain injury; CA3 hippocampus neurons; assay: Traumatic brain injury model (delayed neuronal death), i.c.v. administration; format: in vivo, Wistar rats; settings: for Effect of treatment on neuronal loss in the CA3 hippocampus (ANOVA): 10 μg i.c.v.; for Neuroprotective effect with delayed administration: administered i.c.v. up to 8 hrs after trauma; for Effect on hippocampal neuronal loss: injection of 10 μg into the right cerebral ventricle; for Neuroprotective effect in the traumatic brain injury model: result in words; for Neuronal densities CA3 hippocampus: traumatized right side, 10 μg i.c.v. 15 min after trauma, 3 days after injury, mean ± SD
Protocol: (§1) Contusing device. The contusing device consisted of a stainless steel tube, 40 cm in length, perforated at 1 cm intervals to prevent air compression in the tube. Wistar rats, 230–270 g, were anesthetized with chloral hydrate, 400 mg/kg i.p., a craniotomy over the right hemisphere was made, the device guiding a falling weight onto the footplate resting upon the surface of the dura was placed perpendicular to the surface of the skull, and a force of 380 g×cm produced by a 20 g weight was selected to produce brain contusion. A maximum of 2.5 mm depression of the brain surface was allowed to avoid mechanical puncture of the dura. The center of the footplate was stereotaxically positioned 1.5 mm posterior and 2.5 mm lateral to the bregma. The rats underwent perfusion fixation 3 days after brain injury with a solution containing 4% paraformaldehyde in phosphate buffer.
Intracerebroventricular (i.c.v.) injections: Compounds were administered i.c.v. by means of a Hamilton syringe in a volume of 5–15 μl. Injections were performed over 5 min, 15 min−8 hrs after trauma using the following stereotaxic coordinates: AP=−0.5 mm, L=−2 mm and V=−5.5 in relation to bregma (Swanson, L. W. (1992) Brain Maps: Structure of the Rat Brain, Elsevier, Amsterdam).
(§2) Morphometric analysis in hippocampus. The damage in the hippocampal CA3 subfield was determined stereologically at 5 different rostrocaudal levels extending from 10.21 to 11.21 mm (Swanson, L. W. (1992) Brain Maps: Structure of the Rat Brain, Elsevier, Amsterdam) and throughout its mediolateral axis three days after traumatic injury. To quantitatively assess neuronal loss in the hippocampus, stereological disector technique (Cruz-Orive, L. M. & Weibel, E. R. (1990) Am. J. Physiol. 258, L148–L156) was used to estimate numerical density (NV) of pyramidal neurons. An unbiased counting frame (0.05 mm×0.05 mm; disector height 0.01 mm) and a high-aperture objective (×40) were used for sampling. Normal neurons were identified by the presence of the typical nuclei with clear nucleoplasm and distinct nucleolus surrounded by cytoplasm containing Nissl substance. The border between CA2 and CA3 subfields was considered as the point where the looser arrangement of large pyramidal cells goes into densely packed pyramidal cells of the subfield CA3. An arbitrary line connecting the lateral ends of the dentate granule cell layers was considered a junction between subfields CA3 and CA4.
Dose responses of the neuroprotective effect of the compounds with the formulae 6 and 7 when administered i.c.v. 15 min after trauma to adult Wistar rats were measured. Neuronal densities were determined in the CA3 hippocampal subfield as described in the methods. Densities of CA3 neurons±Standard Deviation (=SED) in 6 stereotactic levels in the left non-traumatized side of vehicle treated rats and the traumatized right side of vehicle treated rats and in rats treated with the compounds with the formulae 6 and 7 were measured and the results listed in table 1 below. In all of the following tables the numbers (“n”) indicate the number of rats per group, where applicable.

[2] = system: traumatic brain injury; CA3 hippocampus neurons; assay: Traumatic brain injury model (delayed neuronal death), i.v. administration; format: in vivo, Wistar rats; settings: for Neuronal densities CA3 hippocampus, i.v. administration: mean ± SD
Protocol: as §1
Intravenous injections: Compounds were administered i.v. using a 1 ml syringe attached to a 26 gauge needle. The needle was inserted into the left femoral vein following a small skin incision. Compounds were administered in a volume of 1 ml/kg body weight over 30 sec.
as §2
(P<0.001; n=8 per group).

Row | Structure (SMILES) | Effect of treatment on neuronal loss in the CA3 hippocampus (ANOVA) [1] | Neuroprotective effect with delayed administration [1] | Effect on hippocampal neuronal loss [1] | Neuroprotective effect in the traumatic brain injury model [1] | Neuronal densities CA3 hippocampus ([1]; stereotactic level 10.21) [cells × 10^3/mm^3] | Neuronal densities CA3 hippocampus ([1]; stereotactic level 10.41) [cells × 10^3/mm^3] | Neuronal densities CA3 hippocampus ([1]; stereotactic level 10.61) [cells × 10^3/mm^3] | Neuronal densities CA3 hippocampus ([1]; stereotactic level 10.81) [cells × 10^3/mm^3] | Neuronal densities CA3 hippocampus ([1]; stereotactic level 11.01) [cells × 10^3/mm^3] | Neuronal densities CA3 hippocampus ([1]; stereotactic level 11.21) [cells × 10^3/mm^3] | further results
1 | O=C(O)CN1C(=O)[C@@H](NC(=O)C2(C[C@@H](CCc3ccccc3)C(=O)O)CCCC2)CCc2ccccc21 [Formula 6, (2R)-2-{[1-({[(3S)-1-(carboxymethyl)-2-oxo-2,3,4,5-tetrahydro-1H-1-benzaepin-3-yl]amino}carbonyl)cyclopentyl]methyl}-4-phenylbutanoic acid] | significant protective effect | still evident | partially prevented hippocampal neuronal loss | dose-dependent neuroprotective effects | 112.5 ± 11.40 | 103.75 ± 11.80 | 101.75 ± 14.80 | 98.50 ± 10.68 | 96.75 ± 13.98 | 101.75 ± 15.17 | 
2 | O=C(O)CN1C(=O)[C@@H](NC(=O)C2(C[C@@H](CCc3cccc4ccccc34)C(=O)O)CCCC2)CCc2ccccc21 [Formula 7, (2R)-2-{[1-({[(3S)-1-(carboxymethyl)-2-oxo-2,3,4,5-tetrahydro-1H-1-benzazepin-3-yl]amino)carbonyl)cyclopentyl]methyl}-4-(1-naphthyl)butanoic acid] | significant protective effect | still evident | partially prevented hippocampal neuronal loss | dose-dependent neuroprotective effects | 107.25 ± 15.19 | 100.25 ± 14.71 | 93.50 ± 16.96 | 93.50 ± 12.36 | 101.50 ± 18.81 | 107.75 ± 16.51 | Effect of treatment on neuronal loss in the CA3 hippocampus (ANOVA) ([2]; both tested doses (30 and 300 mg/kg i.v.), P<0.001, n=8 per group): significant protective effect; Neuroprotection of 300 mg/kg compared with 30 mg/kg (ANOVA) ([2]; i.v., 300 mg/kg vs 30 mg/kg): significantly better neuroprotection; Effect on hippocampal neuronal loss ([2]; injection of 30 or 300 mg/kg i.v.): partially prevented hippocampal neuronal loss; Neuronal densities CA3 hippocampus, i.v. administration ([2]; stereotactic level 10.21, 30 mg/kg i.v.): 107.50 ± 6.99 cells × 10^3/mm^3; Neuronal densities CA3 hippocampus, i.v. administration ([2]; stereotactic level 10.21, 300 mg/kg i.v.): 126.50 ± 5.53 cells × 10^3/mm^3; Neuronal densities CA3 hippocampus, i.v. administration ([2]; stereotactic level 10.41, 30 mg/kg i.v.): 102.25 ± 7.89 cells × 10^3/mm^3; Neuronal densities CA3 hippocampus, i.v. administration ([2]; stereotactic level 10.41, 300 mg/kg i.v.): 117.75 ± 4.95 cells × 10^3/mm^3; Neuronal densities CA3 hippocampus, i.v. administration ([2]; stereotactic level 10.61, 30 mg/kg i.v.): 100.75 ± 9.91 cells × 10^3/mm^3; Neuronal densities CA3 hippocampus, i.v. administration ([2]; stereotactic level 10.61, 300 mg/kg i.v.): 110.00 ± 7.01 cells × 10^3/mm^3; Neuronal densities CA3 hippocampus, i.v. administration ([2]; stereotactic level 10.81, 30 mg/kg i.v.): 101.75 ± 9.65 cells × 10^3/mm^3; Neuronal densities CA3 hippocampus, i.v. administration ([2]; stereotactic level 10.81, 300 mg/kg i.v.): 106.75 ± 7.48 cells × 10^3/mm^3; Neuronal densities CA3 hippocampus, i.v. administration ([2]; stereotactic level 11.01, 30 mg/kg i.v.): 111.25 ± 7.55 cells × 10^3/mm^3; Neuronal densities CA3 hippocampus, i.v. administration ([2]; stereotactic level 11.01, 300 mg/kg i.v.): 116.50 ± 9.06 cells × 10^3/mm^3; Neuronal densities CA3 hippocampus, i.v. administration ([2]; stereotactic level 11.21, 30 mg/kg i.v.): 117.75 ± 10.11 cells × 10^3/mm^3; Neuronal densities CA3 hippocampus, i.v. administration ([2]; stereotactic level 11.21, 300 mg/kg i.v.): 125.25 ± 5.01 cells × 10^3/mm^3
